Molecular target: Solute carrier organic anion transporter family member 2A1 (Homo sapiens, UniProt Q92959)
Assay: TP_TRANSPORTER: inhibition of PGE2 uptake in PGT-expressing HeLa cells
Assay type: functional, cell-based

Ki	Structure (SMILES)
15 mM	O=C[C@H](O)COP(=O)(O)O
57 mM	O=C(OP(=O)(O)O)C(O)COP(=O)(O)O (configuration not stated)
31 mM	O=P(O)(O)OC[C@H]1O[C@@H](O)[C@H](O)[C@@H](O)[C@@H]1O
48 mM	C[C@@H](O)C(=O)O [D-LACTIC ACID]
51 mM	O=P(O)(O)OC[C@H]1O[C@@](O)(COP(=O)(O)O)[C@@H](O)[C@@H]1O [FRUCTOSE 1,6-DIPHOSPHATE]
13 mM	C=C(OP(=O)(O)O)C(=O)O [PHOSPHOENOLPYRUVATE]
26 mM	CC(=O)C(=O)O [PYRUVATE]
